Reference: ChEMBL document CHEMBL1201862, “PubChem BioAssay data set” (2004)
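Step 1: Grow cells in 96-well plates. Step 2: Expose to compound for 48 hours at 5 concentrations. Step 3: Interpolate endpoints linearly; if unreached, use highest concentration. Here, GI50 denotes the concentration required for 50% inhibition of growth.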 Activity calls are given as the source filed them. Rule as the data show it: active = GI50 up to about 1.1 µM and inactive = higher.

Key:
Experiment in all cases: NCI tumour cell line growth inhibition, 48 h
CCRF-CEM = tested on: CCRF-CEM
RPMI-8226 = tested on: RPMI-8226
RXF 393 = tested on: RXF 393
MDA-MB-435 = tested on: MDA-MB-435
SNB-75 = tested on: SNB-75
SNB-19 = tested on: SNB-19
NCI-H522 = tested on: NCI-H522
EKVX = tested on: EKVX
NCI/ADR-RES = tested on: NCI/ADR-RES
MDA-MB-231 = tested on: MDA-MB-231
OVCAR-4 = tested on: OVCAR-4
NCI-H23 = tested on: NCI-H23
786-0 = tested on: 786-0
SF-295 = tested on: SF-295
IGROV-1 = tested on: IGROV-1
TK-10 = tested on: TK-10
K562 = tested on: K562
KM12 = tested on: KM12
OVCAR-8 = tested on: OVCAR-8

Measured: GI50

Cc1ccc(C2=Nc3cccc4cccc(c34)N2)cc1
inactive: CCRF-CEM > 100 µM | RPMI-8226 > 100 µM | RXF 393 > 100 µM | MDA-MB-435 > 100 µM | SNB-75 > 100 µM | SNB-19 > 100 µM | NCI-H522 > 100 µM | EKVX > 100 µM | NCI/ADR-RES > 100 µM | MDA-MB-231 > 100 µM | OVCAR-4 > 100 µM | NCI-H23 > 100 µM | 786-0 > 100 µM | SF-295 > 100 µM | IGROV-1 > 100 µM | TK-10 > 100 µM | K562 > 100 µM | KM12 > 100 µM | OVCAR-8 > 100 µM

N=C(N)SCC(=O)O
inactive: CCRF-CEM > 100 µM | RPMI-8226 > 100 µM | RXF 393 > 100 µM | MDA-MB-435 > 100 µM | SNB-75 > 100 µM | SNB-19 > 100 µM | NCI-H522 > 100 µM | EKVX > 100 µM | NCI/ADR-RES > 100 µM | MDA-MB-231 > 100 µM | OVCAR-4 > 100 µM | NCI-H23 > 100 µM | 786-0 > 100 µM | SF-295 > 100 µM | IGROV-1 > 100 µM | TK-10 > 100 µM | K562 5.68 µM | KM12 > 100 µM | OVCAR-8 > 100 µM

Clc1ccc(OCC2NC3CCC2CC3)cn1 (stereo not given)
inactive: CCRF-CEM 25 µM | RPMI-8226 13.4 µM | RXF 393 36.9 µM | MDA-MB-435 20.4 µM | SNB-75 61 µM | SNB-19 34.4 µM | NCI-H522 19 µM | EKVX 26.3 µM | NCI/ADR-RES 50.1 µM | MDA-MB-231 19.1 µM | OVCAR-4 37.9 µM | NCI-H23 49.2 µM | 786-0 18.3 µM | SF-295 19.8 µM | IGROV-1 38.2 µM | TK-10 42.3 µM | K562 17.5 µM | KM12 18.4 µM | OVCAR-8 31.5 µM

O=C(c1ccccc1)C1C[C@H]2CO[C@H](c3ccccc3)N2C1=O (stereo not given in full)
inactive: CCRF-CEM 99.3 µM | RPMI-8226 > 100 µM | RXF 393 > 100 µM | MDA-MB-435 > 100 µM | SNB-75 > 100 µM | SNB-19 > 100 µM | NCI-H522 > 100 µM | EKVX > 100 µM | NCI/ADR-RES > 100 µM | MDA-MB-231 > 100 µM | OVCAR-4 > 100 µM | NCI-H23 > 100 µM | 786-0 > 100 µM | SF-295 > 100 µM | IGROV-1 > 100 µM | TK-10 > 100 µM | K562 > 100 µM | KM12 > 100 µM | OVCAR-8 > 100 µM

O=C(NNc1ccc([N+](=O)[O-])cc1[N+](=O)[O-])/C(O)=C\C(=O)c1ccccc1
inactive: CCRF-CEM 16.9 µM | RPMI-8226 15.3 µM | RXF 393 16.3 µM | MDA-MB-435 30.5 µM | SNB-75 12.8 µM | SNB-19 25.4 µM | NCI-H522 25.6 µM | EKVX 25.2 µM | NCI/ADR-RES 16.3 µM | MDA-MB-231 23.4 µM | OVCAR-4 22.6 µM | NCI-H23 20 µM | 786-0 13.2 µM | SF-295 15.3 µM | IGROV-1 17.9 µM | TK-10 22.4 µM | K562 25.1 µM | KM12 16.3 µM | OVCAR-8 18.7 µM

C#C[C@]1(O)CC[C@H]2[C@@H]3CCC4=C/C(=N\OCCN(CC)CC)CC[C@]4(C)[C@H]3CC[C@@]21C
inactive: CCRF-CEM 3.33 µM | RPMI-8226 2.53 µM | RXF 393 2.41 µM | MDA-MB-435 3.27 µM | SNB-75 3.05 µM | SNB-19 5.06 µM | NCI-H522 2.42 µM | EKVX 6.87 µM | NCI/ADR-RES 2.59 µM | MDA-MB-231 13.6 µM | OVCAR-4 12.5 µM | NCI-H23 5.22 µM | 786-0 2.7 µM | SF-295 2.16 µM | IGROV-1 3.85 µM | TK-10 6.7 µM | K562 3.09 µM | KM12 2.92 µM | OVCAR-8 7.24 µM

COc1ccc(C(C#N)NCCCCCCNC(C#N)c2ccc(OC)cc2)cc1 (stereo not given)
inactive: CCRF-CEM > 100 µM | RPMI-8226 > 100 µM | RXF 393 > 100 µM | MDA-MB-435 > 100 µM | SNB-75 > 100 µM | SNB-19 > 100 µM | NCI-H522 > 100 µM | EKVX > 100 µM | NCI/ADR-RES > 100 µM | MDA-MB-231 > 100 µM | OVCAR-4 > 100 µM | NCI-H23 > 100 µM | 786-0 > 100 µM | SF-295 > 100 µM | IGROV-1 > 100 µM | TK-10 > 100 µM | K562 > 100 µM | KM12 > 100 µM | OVCAR-8 > 100 µM

NCCSc1nc2ccccc2s1
inactive: CCRF-CEM 26.3 µM | RPMI-8226 31.9 µM | RXF 393 29.5 µM | MDA-MB-435 23 µM | SNB-75 22.8 µM | SNB-19 64.7 µM | NCI-H522 28.1 µM | EKVX 34.4 µM | NCI/ADR-RES 42.6 µM | MDA-MB-231 40 µM | OVCAR-4 29 µM | NCI-H23 41.7 µM | 786-0 26.6 µM | SF-295 23.4 µM | IGROV-1 41.5 µM | TK-10 24.9 µM | K562 10.6 µM | KM12 45.1 µM | OVCAR-8 43.2 µM

CN(C)Cc1cc(/N=N/c2c(Cl)cccc2Cl)ccc1O
inactive: CCRF-CEM > 100 µM | RPMI-8226 74.8 µM | RXF 393 23.4 µM | MDA-MB-435 88.9 µM | SNB-75 > 100 µM | SNB-19 > 100 µM | NCI-H522 > 100 µM | EKVX > 100 µM | NCI/ADR-RES > 100 µM | MDA-MB-231 > 100 µM | OVCAR-4 > 100 µM | NCI-H23 63.4 µM | 786-0 64.1 µM | SF-295 > 100 µM | IGROV-1 61.4 µM | TK-10 > 100 µM | K562 53.5 µM | KM12 > 100 µM | OVCAR-8 > 100 µM

CCOC(=O)C1c2[nH]c3ccccc3c2CCN1C(=O)c1ccc(OC)o1 (stereo not given)
inactive: CCRF-CEM > 10 µM | RPMI-8226 > 10 µM | RXF 393 > 10 µM | MDA-MB-435 > 10 µM | SNB-75 5.78 µM | SNB-19 > 10 µM | NCI-H522 > 10 µM | EKVX > 10 µM | NCI/ADR-RES > 10 µM | MDA-MB-231 > 10 µM | OVCAR-4 > 10 µM | NCI-H23 > 10 µM | 786-0 > 10 µM | SF-295 > 10 µM | IGROV-1 > 10 µM | TK-10 > 10 µM | K562 > 10 µM | KM12 > 10 µM | OVCAR-8 > 10 µM

COc1c(O)cc(O)c2c(=O)cc(-c3ccccc3)oc12 [WOGONIN]
inactive: CCRF-CEM 27 µM | RPMI-8226 17.5 µM | RXF 393 17.5 µM | MDA-MB-435 65.5 µM | SNB-75 56.1 µM | SNB-19 58.7 µM | NCI-H522 40.6 µM | EKVX 61.5 µM | NCI/ADR-RES 60.5 µM | MDA-MB-231 > 100 µM | OVCAR-4 77.4 µM | NCI-H23 42.6 µM | 786-0 51.9 µM | SF-295 34.5 µM | IGROV-1 29.4 µM | TK-10 60.8 µM | K562 25.1 µM | KM12 34 µM | OVCAR-8 52.4 µM

C#CCn1c(I)cc2c(c1=O)COC(=O)[C@]2(O)CC
inactive: CCRF-CEM > 100 µM | RPMI-8226 > 100 µM | RXF 393 > 100 µM | MDA-MB-435 > 100 µM | SNB-75 > 100 µM | SNB-19 > 100 µM | NCI-H522 > 100 µM | EKVX > 100 µM | NCI/ADR-RES > 100 µM | MDA-MB-231 > 100 µM | OVCAR-4 > 100 µM | NCI-H23 > 100 µM | 786-0 > 100 µM | SF-295 > 100 µM | IGROV-1 > 100 µM | TK-10 > 100 µM | K562 > 100 µM | KM12 > 100 µM | OVCAR-8 > 100 µM

N/C(=N\Nc1nc2cc([N+](=O)[O-])ccc2o1)c1ccccn1
active: CCRF-CEM < 0.0223 µM | RPMI-8226 0.123 µM | RXF 393 0.0622 µM | MDA-MB-435 0.551 µM | SNB-75 0.817 µM | SNB-19 0.506 µM | NCI-H522 0.043 µM | EKVX 0.0257 µM | NCI/ADR-RES 0.0404 µM | MDA-MB-231 0.114 µM | OVCAR-4 0.179 µM | NCI-H23 0.229 µM | 786-0 0.0897 µM | SF-295 0.207 µM | IGROV-1 0.147 µM | TK-10 0.193 µM | K562 0.0673 µM | KM12 0.372 µM | OVCAR-8 0.0474 µM

O=C1Oc2ccccc2C(=O)/C1=C/NC(=S)NCCc1ccccc1
inactive: CCRF-CEM 27.9 µM | RPMI-8226 35.2 µM | RXF 393 39.8 µM | MDA-MB-435 48.6 µM | SNB-75 22.7 µM | SNB-19 37.7 µM | NCI-H522 23.3 µM | EKVX 63.7 µM | NCI/ADR-RES 38.7 µM | MDA-MB-231 37.8 µM | OVCAR-4 34.9 µM | NCI-H23 33.1 µM | 786-0 38.7 µM | SF-295 38.5 µM | IGROV-1 27 µM | TK-10 32.1 µM | K562 > 100 µM | KM12 37.2 µM | OVCAR-8 29.2 µM

CC(C(O)c1ccccc1)C(O)(C(F)(F)F)C(F)(F)F (stereo not given)
inactive: CCRF-CEM > 100 µM | RPMI-8226 > 100 µM | RXF 393 > 100 µM | MDA-MB-435 > 100 µM | SNB-75 65.3 µM | SNB-19 > 100 µM | NCI-H522 > 100 µM | EKVX > 100 µM | NCI/ADR-RES > 100 µM | MDA-MB-231 > 100 µM | OVCAR-4 > 100 µM | NCI-H23 > 100 µM | 786-0 > 100 µM | SF-295 > 100 µM | IGROV-1 84.5 µM | TK-10 > 100 µM | K562 > 100 µM | KM12 > 100 µM | OVCAR-8 > 100 µM
